Patent US8029764B2, “Methods for detection of colorectal cancer” (The Johns Hopkins University, priority 2001, dated 2011)

System: colorectal tissue transcripts
Test: SAGE of normal, adenoma and cancer colorectal tissue (transcript tag counts)
Parameters: species or system human
From the text: In an effort to identify potential molecular markers of early colorectal tumors, we have here analyzed gene expression in benign and malignant colorectal tumors in an unbiased and comprehensive fashion. We used SAGE to analyze global gene expression in normal, benign and malignant colorectal tissue. SAGE is a gene expression profiling method that associates individual mRNA transcripts with 15-base tags derived from specific positions near their 3′ termini (3). The abundance of each tag provides a quantitative measure of the transcript level present within the mRNA population studied. SAGE is not dependent on pre-existing databases of expressed genes, and therefore provides an unbiased view of gene expression profiles. For the current study, SAGE libraries derived from two samples of normal colonic epithelium, two colorectal adenomas, and two colorectal cancers were analyzed.
SAGE. For the initial SAGE^3 of benign tumors, fresh adenomas were obtained from surgical specimens derived from FAP patients. Adenomas from FAP patients were employed because of the ready availability of small lesions and the certainty of inactivation of the APC pathway which initiates the formation of the majority of sporadic tumors. After histopathological verification of the neoplastic nature of the lesion (>70% neoplastic cells), total RNA was isolated by solubilizing the tissue in RNAgents Lysis Buffer (Promega, Madison, Wis.) followed by ultracentrifugation over a cesium chloride gradient. mRNA selection was performed from the purified total RNA using oligo(dT) cellulose (Life Technologies, Gaithersburg, Md.). […] Tags were extracted from the raw sequence data and, after excluding repeated ditags, linker sequences, and tags from the polyrnorphic Major Histocompatibility loci, the resulting tag libraries were compared and statistical analysis performed using SAGE software, version 4.0. Data from the libraries are publicly available at the Uniform Resource Locator (URL) address for the http file type found on the www host server that has a domain name of ncbi.nlm.nih.gov, and a path to the directory SAGE, and detailed SAGE protocols are available at the Uniform Resource Locator (URL) address for the http file type found on the www host server that has a domain name of sagenet.org, and file name of sage_protocol.htn.

[1] = normal colorectal tissue library 1
[2] = normal colorectal tissue library 2

Row | Sequence | AD1 (SAGE tag count) (SAGE library AD1) | AD2 (SAGE tag count) (SAGE library AD2) | CA1 (SAGE tag count) (SAGE library CA1) | CA2 (SAGE tag count) (SAGE library CA2) | NC1 (SAGE tag count) (SAGE library NC1) | NC2 (SAGE tag count) (SAGE library NC2) | AD1 (SAGE tag count) (adenoma library 1) | AD2 (SAGE tag count) (adenoma library 2) | CA1 (SAGE tag count) (cancer library 1) | CA2 (SAGE tag count) (cancer library 2) | NC1 (SAGE tag count) [1] | NC2 (SAGE tag count) [2]
1 | GCCGTGGAGA (chemistry not fully specified) | 4 | 11 | 7 | 7 | 32 | 23 |  |  |  |  |  | 
2 | GCCCAGTGGC (chemistry not fully specified) | 8 | 15 | 2 | 5 | 51 | 0 |  |  |  |  |  | 
3 | GTCCGAGTGC (chemistry not fully specified) | 0 | 0 | 0 | 0 | 17 | 3 |  |  |  |  |  | 
4 | CTTGATTCCC (chemistry not fully specified) | 5 | 0 | 2 | 5 | 26 | 9 |  |  |  |  |  | 
5 | TACTCGGCCA (chemistry not fully specified) |  |  |  |  |  |  | 0 | 0 | 1 | 0 | 10 | 5
6 | GCTGGCCCCG (chemistry not fully specified) | 0 | 0 | 0 | 1 | 5 | 11 |  |  |  |  |  | 
7 | TGGCGCGTGT (chemistry not fully specified) |  |  |  |  |  |  | 0 | 0 | 9 | 5 | 25 | 8
8 | TGCTCCTACC (chemistry not fully specified; the letters are possibly those of the target site) |  |  |  |  |  |  | 70 | 22 | 17 | 22 | 140 | 113
9 | ACCTGGGGAG (chemistry not fully specified) | 1 | 3 | 4 | 3 | 35 | 11 |  |  |  |  |  | 
10 | GAGAGCTCCC (chemistry not fully specified) | 3 | 0 | 2 | 1 | 5 | 11 |  |  |  |  |  | 
11 | CCTGCTGCAG (chemistry not fully specified) | 0 | 1 | 6 | 9 | 7 | 34 |  |  |  |  |  | 
12 | CTGAACCTCC (chemistry not fully specified) | 2 | 0 | 0 | 0 | 5 | 15 |  |  |  |  |  | 
13 | CCTTCAAATC (chemistry not fully specified) | 0 | 0 | 1 | 0 | 29 | 17 |  |  |  |  |  | 
14 | ACCTGCATCC (chemistry not fully specified) | 0 | 0 | 0 | 0 | 0 | 12 |  |  |  |  |  | 
15 | GGCCCTGCAG (chemistry not fully specified) | 1 | 0 | 5 | 1 | 14 | 7 |  |  |  |  |  | 
16 | ACAATTGGTC (chemistry not fully specified) | 0 | 0 | 0 | 0 | 0 | 10 |  |  |  |  |  | 
17 | ATACTCCACT (chemistry not fully specified) | 0 | 0 | 10 | 3 | 82 | 59 |  |  |  |  |  | 

Row | Sequence | AD1 (SAGE tag count) (SAGE library AD1) | AD2 (SAGE tag count) (SAGE library AD2) | CA1 (SAGE tag count) (SAGE library CA1) | CA2 (SAGE tag count) (SAGE library CA2) | NC1 (SAGE tag count) (SAGE library NC1) | NC2 (SAGE tag count) (SAGE library NC2) | AD1 (SAGE tag count) (adenoma library 1) | AD2 (SAGE tag count) (adenoma library 2) | CA1 (SAGE tag count) (cancer library 1) | CA2 (SAGE tag count) (cancer library 2) | NC1 (SAGE tag count) [1] | NC2 (SAGE tag count) [2]
18 | GCACAGGTCA (chemistry not fully specified) | 1 | 0 | 1 | 1 | 5 | 9 |  |  |  |  |  | 
19 | GTCCTGAACA (chemistry not fully specified) | 0 | 0 | 0 | 0 | 7 | 3 |  |  |  |  |  | 
20 | GGAGGCGCTC (chemistry not fully specified) | 1 | 1 | 0 | 1 | 5 | 11 |  |  |  |  |  | 
21 | TTGGACCTGG (chemistry not fully specified) |  |  |  |  |  |  | 7 | 18 | 12 | 16 | 33 | 31
22 | ACACCCATCA (chemistry not fully specified) | 1 | 0 | 5 | 3 | 2 | 27 |  |  |  |  |  | 
23 | ACAGGGTGAC (chemistry not fully specified) | 1 | 8 | 7 | 6 | 25 | 13 |  |  |  |  |  | 
24 | ATGCGGGAGA (chemistry not fully specified) | 15 | 22 | 5 | 6 | 38 | 39 |  |  |  |  |  | 
25 | TTATGGTGTG (chemistry not fully specified) |  |  |  |  |  |  | 0 | 0 | 0 | 0 | 11 | 17
26 | ACCCCCCCGC (chemistry not fully specified) | 7 | 13 | 16 | 6 | 44 | 38 |  |  |  |  |  | 
27 | GATATGTAAA (chemistry not fully specified) | 0 | 0 | 0 | 0 | 1 | 10 |  |  |  |  |  | 
28 | CTTGACATAC (chemistry not fully specified) | 4 | 4 | 0 | 0 | 18 | 20 |  |  |  |  |  | 
29 | TTTTCTGCAT (chemistry not fully specified) |  |  |  |  |  |  | 1 | 0 | 1 | 2 | 8 | 7
30 | CTTAGAGGGG (chemistry not fully specified) | 0 | 1 | 1 | 1 | 16 | 22 |  |  |  |  |  | 
31 | CGGTGGGACC (target site or template, no part of the molecule; chemistry not given here) | 1 | 1 | 3 | 3 | 7 | 14 |  |  |  |  |  | 
32 | CTGTACTTGT (chemistry not fully specified) | 1 | 1 | 0 | 0 | 9 | 5 |  |  |  |  |  | 
33 | ACCCAACTGC (chemistry not fully specified) | 0 | 0 | 0 | 0 | 12 | 3 |  |  |  |  |  | 
